Values after ≈ are worked out from the molar mass of the structure shown. Like-named read-outs stand apart in the source and are kept apart here.
Columns and labels:
[1] = Formation of a low-solubility polymer/drug complex (gel) on mixing polyanion sodium salt with the salt of the active ingredient
Source text: A “yes” entry means that a complex of low solubility forms on mixing the sodium salt of the polymers and the salt of the active ingredient.

[2] = test system: P. Aeruginosa; conditions: cited from earlier work
[3] = test system: S. Aureus; conditions: cited from earlier work
[4] = Distribution of amikacin between gelatinous precipitate and supernatant on mixing amikacin sulfate with dextran sulfate (Na); format: physicochemical; conditions: amikacin sulfate solution mixed with dextran sulfate (Na) solution
Source text: As part of the normal preparation of a solid dosage form based on calcium sulfate, a solution of amikacin sulfate was mixed with a solution of dextran sulfate (Na).

[5] = test system: E. Coli; conditions: cited from earlier work
[6] = test system: Enterobacter spp.; conditions: cited from earlier work
[7] = In vitro release profile of the drug polymer complex in PBS at 37° C.; format: physicochemical; conditions: ½ dextran sulfate Mw 40,000 (40,000-50,000) and ½ Mw 500,000, FIG. 6
Description: Release profile: Dextran sulfate/amikacin wet gel (100 mg) was placed in 2 ml centrifuge tube. PBS buffer (500 μl) was added to the centrifuged tube. After incubation at 37° C. for 24 hrs, the mixture was centrifuged at 13,000 RPM for 5 minutes. The supernatant was removed and analyzed microbiologically for the presence of drug. The process was repeated at 24 hr intervals for 31 days. The amount of released drug in the eluate was calculated from a standard curve.
The release profile is illustrated in FIG. 1. The release profiles for the compounds of the other Figures were generated in a similar manner.

[8] = mixing sodium salt of CMC-L (low viscosity carboxymethylcellulose) and salt of the active ingredient
[9] = mixing sodium salt of CMC-M (medium viscosity carboxymethylcellulose) and salt of the active ingredient
[10] = mixing sodium salt of Dextran Sulfate-500 and salt of the active ingredient

Compound	complex of low solubility forms (yes/no), polymer CMC-L [1, 8]	complex of low solubility forms (yes/no), polymer CMC-M [1, 9]	complex of low solubility forms (yes/no), polymer Dextran Sulfate-500 [1, 10]	complex of low solubility forms (yes/no), polymer Dextran Sulfate-500 [1]	also measured
O=C1CC[C@@]2(O)[C@H]3Cc4ccc(O)c5c4[C@@]2(CCN3CC2CC2)[C@H]1O5 [Naltrexone]	no	no	yes		
NC[C@H]1O[C@H](O[C@H]2[C@H](O)[C@@H](O[C@H]3O[C@H](CO)[C@@H](O)[C@H](N)[C@H]3O)[C@H](N)C[C@@H]2N)[C@H](N)C[C@@H]1O [Tobramycin]			yes		
[H]/N=C(/N)N[C@H]1[C@H](O)[C@@H](O)[C@H](O[C@@H]2O[C@@H](C)[C@](O)(C=O)[C@H]2O[C@@H]2O[C@@H](CO)[C@H](O)[C@@H](O)[C@@H]2NC)[C@@H](N/C(N)=N\[H])[C@@H]1O [Streptomycin]			yes		
CCCCNc1ccc(C(=O)OCCN(C)C)cc1 [Tetracaine]	yes	yes	yes		
CN[C@H](CC(C)C)C(=O)N[C@H]1C(=O)N[C@@H](CC(N)=O)C(=O)N[C@H]2C(=O)N[C@H]3C(=O)N[C@H](C(=O)N[C@H](C(=O)O)c4cc(O)cc(O)c4-c4cc3ccc4O)[C@H](O)c3ccc(c(Cl)c3)Oc3cc2cc(c3O[C@@H]2O[C@H](CO)[C@@H](O)[C@H](O)[C@H]2O[C@H]2C[C@](C)(N)[C@H](O)[C@H](C)O2)Oc2ccc(cc2Cl)[C@H]1O [Vancomycin]				yes	complex of low solubility forms (yes/no), polymer CMC-L [1]: yes
CN(C)CCCN1c2ccccc2Sc2ccc(Cl)cc21 [Chlorpromazine]				yes	complex of low solubility forms (yes/no), polymer CMC-L [1]: yes; complex of low solubility forms (yes/no), polymer CMC-M [1]: yes
CCCCOc1cc(C(=O)NCCN(CC)CC)c2ccccc2n1 [Dibucaine]	yes	yes	yes		
CCN(CC)CCOC(=O)c1ccc(N)cc1 [Procaine]			yes		
COc1cccc2c1C(=O)c1c(O)c3c(c(O)c1C2=O)C[C@@](O)(C(=O)CO)C[C@@H]3O[C@H]1C[C@H](N)[C@H](O)[C@H](C)O1 [Doxorubicin]	yes	yes	yes		
CCC(=O)C(CC(C)N(C)C)(c1ccccc1)c1ccccc1 (stereo not drawn) [Methadone]	no	no	yes		
CC[C@H]1OC(=O)[C@H](C)[C@@H](O[C@H]2C[C@@](C)(OC)[C@@H](O)[C@H](C)O2)[C@H](C)[C@@H](O[C@@H]2O[C@H](C)C[C@H](N(C)C)[C@H]2O)[C@](C)(O)C[C@@H](C)C(=O)[C@H](C)[C@@H](O)[C@]1(C)O [Erythromycin]				yes	complex of low solubility forms (yes/no), polymer CMC-L [1]: no; complex of low solubility forms (yes/no), polymer CMC-M [1]: no
CN1CCc2cccc3c2[C@H]1Cc1ccc(O)c(O)c1-3 [Apomorphine]			yes		
C[C@H]1c2cccc(O)c2C(=O)C2=C(O)[C@]3(O)C(=O)C(C(N)=O)=C(O)[C@@H](N(C)C)[C@@H]3[C@@H](O)[C@@H]21 [Doxycycline]	yes	yes	yes		
CN(C)[C@@H]1C(O)=C(C(N)=O)C(=O)[C@@]2(O)C(O)=C3C(=O)c4c(O)cccc4[C@@](C)(O)[C@H]3[C@H](O)[C@@H]12 [Oxytetracycline]				yes	complex of low solubility forms (yes/no), polymer CMC-L [1]: yes; complex of low solubility forms (yes/no), polymer CMC-M [1]: yes
CCCNC(C)C(=O)Nc1ccccc1C (stereo not drawn) [Prilocaine]				yes	
Neomycin	no	no	yes		
NCC[C@H](O)C(=O)N[C@@H]1C[C@H](N)[C@@H](O[C@H]2O[C@H](CN)[C@@H](O)[C@H](O)[C@H]2O)[C@H](O)[C@H]1O[C@H]1O[C@H](CO)[C@@H](O)[C@H](N)[C@H]1O [Amikacin]				yes	complex of low solubility forms (yes/no), polymer CMC-L [1]: no; MIC [2]: 2 µg/mL (≈ 3.42 µM); MIC [3]: 1 µg/mL (≈ 1.71 µM); amikacin included in the gelatinous precipitate [4]: > 90%; amikacin remaining in the supernatant [4]: < 10%; MIC [5]: 2 µg/mL (≈ 3.42 µM); MIC [6]: 2 µg/mL (≈ 3.42 µM)
COc1ccc2c3c1O[C@H]1C(=O)CC[C@@]4(O)[C@@H](C2)N(C)CC[C@]314 [Oxycodone]			yes		release rate compared to all (500,000) dextran sulfate complex [7]: increases the release rate; release rate compared to all (500,000) dextran sulfate complex ([7]; listed as oxycodone): accelerated

Reference: patent US20070110804A1, “Drug polymer complexes” (ROYER BIOMEDICAL, INC., priority 2003, published 2007)
